Source: patent US20250230193A1, “CYCLIC COMPOUND HAVING SELECTIVE KRAS INHIBITORY EFFECT ON HRAS AND NRAS” (CHUGAI SEIYAKU KABUSHIKI KAISHA, priority 2022, published 2025)
*1 amine or outer side, *2 acyl side, *3 side chain or, on linkers, in order; H or OH if unused. Where a SMILES comes first, the peptide text is derived from it. Bridges are numbered along the chain shown (N, C = ends). [ ]: non-standard residue; d: D form. The star is where a group is joined. hPhe(3-Cl-4-CF3) = N[C@@H](CCc1ccc(C(F)(F)F)c(Cl)c1)C(=O)O; NPrPhe(4-CF3) = CCCN[C@@H](Cc1ccc(C(F)(F)F)cc1)C(=O)O; NPrAsp = CCCN([C@@H](CC(=O)[*:3])C(=O)[*:2])[*:1]; NMeGly(cPent) = CN[C@H](C(=O)O)C1CCCC1; Pro(4,4-F2) = O=C(O)[C@@H]1CC(F)(F)CN1; NMeD = CN[C@@H](CC(=O)O)C(=O)O; NMeL = CN[C@@H](CC(C)C)C(=O)O; NMeNva = CCC[C@H](NC)C(=O)O; Morpholide = C1CN(*)CCO1; NMeA = CN[C@@H](C)C(=O)O; Ac5c = NC1(C(=O)O)CCCC1; Aze = O=C(O)[C@@H]1CCN1; Ac4c = NC1(C(=O)O)CCC1; Ac3c = NC1(C(=O)O)CC1; NPrGly = CCCNCC(=O)O; NEtG = CCNCC(=O)O; Sar = CNCC(=O)O

Experiments:
[1] = target: GDP-bound HRAS wild-type protein (Homo sapiens, UniProt P01112); experiment: Binding to HRAS by surface plasmon resonance (SPR), Single Cycle Kinetics
[2] = target: GDP-bound NRAS wild-type protein (Homo sapiens, UniProt P01111); experiment: Binding to NRAS by surface plasmon resonance (SPR), Single Cycle Kinetics
[3] = GDP-bound HRAS wild-type vs GDP-bound KRAS wild-type, SPR
[4] = GDP-bound NRAS wild-type vs GDP-bound KRAS wild-type, SPR
[5] = SPR, GDP-bound wild-type proteins

GDP-bound HRAS wild-type protein, sequence (P01112 whole entry): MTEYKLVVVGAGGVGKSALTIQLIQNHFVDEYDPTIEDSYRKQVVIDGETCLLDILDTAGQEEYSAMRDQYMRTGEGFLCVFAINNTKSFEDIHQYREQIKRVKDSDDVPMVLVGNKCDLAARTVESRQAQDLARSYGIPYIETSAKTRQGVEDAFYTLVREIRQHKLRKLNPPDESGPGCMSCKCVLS
GDP-bound NRAS wild-type protein, sequence (P01111 whole entry): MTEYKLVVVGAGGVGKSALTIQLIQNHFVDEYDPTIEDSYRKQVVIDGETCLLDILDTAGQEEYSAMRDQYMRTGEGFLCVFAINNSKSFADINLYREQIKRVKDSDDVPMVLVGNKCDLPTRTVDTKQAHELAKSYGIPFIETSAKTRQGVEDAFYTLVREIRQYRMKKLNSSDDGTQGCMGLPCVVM

CC[C@H](C)[C@@H]1NC(=O)[C@H](C2CCC2)N(C)C(=O)C[C@@H](C(=O)N(C)CC)N(C)C(=O)[C@H](C2CCCC2)N(C)C(=O)C2(CC(C)(C)C2)NC(=O)[C@@H]2C[C@H](C)CN2C(=O)[C@H](CCc2cc(F)c(C(F)(F)F)c(F)c2)NC(=O)CN(C)C(=O)[C@H](Cc2ccc(C(F)(F)F)cc2)N2CC/C=C\C[C@@H](C2=O)N(C)C(=O)CN(C)C1=O [PP1984]
HRAS/KRAS (ratio of KD value for HRAS to KD value for KRAS) [1, 3]: A (a compound having 10 or more and less than 20 is denoted as A) | NRAS/KRAS (ratio of KD value for NRAS to KD value for KRAS) [2, 4]: A (a compound having 10 or more and less than 20 is denoted as A)

CCO[C@@H]1C[C@H]2C(=O)NC3(CCC3)C(=O)N(C)[C@@H](C3CCCC3)C(=O)N(C)[C@H](C(=O)N(C)CC)CC(=O)N(C)[C@H]3CCCCCc4ccc(cc4)C[C@@H](C(=O)N(C)CC(=O)N[C@@H](CCc4ccc(C(F)(F)F)c(OC)c4)C(=O)N2C1)N1CC/C=C\C[C@@H](C1=O)N(C)C(=O)CN(C)C(=O)[C@H]([C@@H](C)CC)NC3=O [PP2118]
HRAS/KRAS (ratio of KD value with respect to HRAS to KD value with respect to KRAS) ([1]; SPR, GDP-bound HRAS wild-type vs GDP-bound KRAS wild-type): B (a compound having 3 or more and less than 10 is denoted as B) | NRAS/KRAS (ratio of KD value with respect to NRAS to KD value with respect to KRAS) ([2]; SPR, GDP-bound NRAS wild-type vs GDP-bound KRAS wild-type): A (a compound having 10 or more and less than 20 is denoted as A)

CCCN1C(=O)CN(C)C(=O)CN(C)C(=O)[C@H]([C@@H](C)CC)NC(=O)[C@H](CC(C)C)N(C)C(=O)C[C@@H](C(=O)N2CCOCC2)N(C)C(=O)[C@H](C2CCCC2)N(C)C(=O)C2(CCC2)NC(=O)[C@H](C)N(C)C(=O)[C@H](CCc2ccc(C(F)(F)F)c(Cl)c2)NC(=O)CN(C)C(=O)[C@@H]1Cc1ccc(C(F)(F)F)cc1 [PP1916] ([NMeL]I[Sar][Sar][NPrPhe(4-CF3)][Sar][hPhe(3-Cl-4-CF3)][NMeA][Ac4c][NMeGly(cPent)][NMeD]-Morpholide; lactam N-11)
HRAS/KRAS (ratio of KD value for HRAS to KD value for KRAS) [1, 3]: C (A compound having a KD ratio of 0.1 or more and less than 3 is denoted as C) | NRAS/KRAS (ratio of KD value for NRAS to KD value for KRAS) [2, 4]: B (a compound having 3 or more and less than 10 is denoted as B)

CCCN1C(=O)CN(C)C(=O)CN(C)C(=O)[C@H]([C@@H](C)CC)NC(=O)[C@H](CC(C)C)N(C)C(=O)C[C@@H](C(=O)N2CCOCC2)N(C)C(=O)[C@H](C2CCCC2)N(C)C(=O)C2(CC2)NC(=O)[C@@H]2CCCN2C(=O)[C@H](CCc2ccc(C(F)(F)F)c(Cl)c2)NC(=O)CN(C)C(=O)[C@@H]1Cc1ccc(C(F)(F)F)cc1 [PP0229] ([NMeL]I[Sar][Sar][NPrPhe(4-CF3)][Sar][hPhe(3-Cl-4-CF3)]P[Ac3c][NMeGly(cPent)][NMeD]-Morpholide; lactam N-11)
HRAS/KRAS (ratio of KD for GDP-bound HRAS wild-type to KD for KRAS) ([1]; SPR): B (a compound having 3 or more and less than 10 is denoted as B) | NRAS/KRAS (ratio of KD for GDP-bound NRAS wild-type to KD for KRAS) ([2]; SPR): B (a compound having 3 or more and less than 10 is denoted as B)

CCCN1CC(=O)NC2(CCCC2)C(=O)N(C)[C@@H](C2CCCC2)C(=O)N(C)[C@H](C(=O)N2CCOCC2)CC(=O)N(C)[C@@H](CC(C)C)C(=O)N[C@@H]([C@@H](C)CC)C(=O)N(C)[C@@H](C)C(=O)N2CC[C@H]2C(=O)N(CCC)[C@@H](Cc2ccc(C(F)(F)F)cc2)C(=O)N(C)CC(=O)N[C@@H](CCc2ccc(C(F)(F)F)c(Cl)c2)C1=O [PP0288] ([NMeL]I[NMeA][Aze][NPrPhe(4-CF3)][Sar][hPhe(3-Cl-4-CF3)][NPrGly][Ac5c][NMeGly(cPent)][NMeD]-Morpholide; lactam N-11)
HRAS/KRAS (ratio of KD for GDP-bound HRAS wild-type to KD for KRAS) ([1]; SPR): B (a compound having 3 or more and less than 10 is denoted as B) | NRAS/KRAS (ratio of KD for GDP-bound NRAS wild-type to KD for KRAS) ([2]; SPR): C (A compound having a KD ratio of 0.1 or more and less than 3 is denoted as C)

CCCN1C(=O)CN(C)C(=O)CN(CC)C(=O)[C@H]([C@@H](C)CC)NC(=O)[C@H](CC(C)C)N(C)C(=O)C[C@@H](C(=O)N2CCOCC2)N(C)C(=O)[C@H](C2CCCC2)N(C)C(=O)C2(CCC2)NC(=O)[C@@H]2CC(F)(F)CN2C(=O)[C@H](CCc2ccc(C(F)(F)F)c(Cl)c2)NC(=O)CN(C)C(=O)[C@@H]1Cc1ccc(C(F)(F)F)cc1 [PP0400] ([NMeL]I[NEtG][Sar][NPrPhe(4-CF3)][Sar][hPhe(3-Cl-4-CF3)][Pro(4,4-F2)][Ac4c][NMeGly(cPent)][NMeD]-Morpholide; lactam N-11)
HRAS/KRAS (ratio of KD for GDP-bound HRAS wild-type to KD for KRAS) ([1]; SPR): B (a compound having 3 or more and less than 10 is denoted as B) | NRAS/KRAS (ratio of KD for GDP-bound NRAS wild-type to KD for KRAS) ([2]; SPR): B (a compound having 3 or more and less than 10 is denoted as B)

CCCN(C)C(=O)[C@@H]1CC(=O)N(C)[C@@H](CC(F)F)C(=O)N[C@@H]([C@@H](C)CC)C(=O)N(C)CC(=O)N(C)[C@H]2C/C=C\CCN(C2=O)[C@@H](Cc2ccc(C(F)(F)F)cc2)C(=O)N(C)CC(=O)N[C@@H](CCc2cc(F)c(C(F)(F)F)c(F)c2)C(=O)N2C[C@H](OCC)C[C@H]2C(=O)NC2(CC(C)(C)C2)C(=O)N(C)[C@@H](C2CCCC2)C(=O)N1C [PP2030]
HRAS/KRAS (ratio of KD value for HRAS to KD value for KRAS) [1, 3]: A (a compound having 10 or more and less than 20 is denoted as A) | NRAS/KRAS (ratio of KD value for NRAS to KD value for KRAS) [2, 4]: A (a compound having 10 or more and less than 20 is denoted as A)

CCO[C@@H]1C[C@H]2C(=O)NC3(CCC3)C(=O)N(C)[C@@H](C3CCCC3)C(=O)N(C)[C@H](C(=O)N3CCOCC3)CC(=O)N(C)C(C)(C)C(=O)N[C@@H]([C@@H](C)CC)C(=O)N(C)CC(=O)N(C)[C@H]3CCCCN(C3=O)[C@@H](Cc3ccc(C(F)(F)F)cc3)C(=O)N(C)CC(=O)N[C@@H](CCc3cc(F)c(C(F)(F)F)c(F)c3)C(=O)N2C1 [PP0722]
HRAS/KRAS (ratio of KD value with respect to GDP-bound HRAS wild-type protein to KD value with respect to KRAS) ([1]; SPR): B (a compound having 3 or more and less than 10 is denoted as B) | NRAS/KRAS (ratio of KD value with respect to GDP-bound NRAS wild-type protein to KD value with respect to KRAS) ([2]; SPR): C (A compound having a KD ratio of 0.1 or more and less than 3 is denoted as C)

CC[C@H](C)[C@@H]1NC(=O)[C@H](CC(C)C)N(C)C(=O)C[C@@H](C(=O)N2CCOCC2)N(C)C(=O)[C@H](C2CCCC2)N(C)C(=O)C2(CCCC2)NC(=O)[C@@H]2CCCN2C(=O)[C@H](CCc2ccc(C(F)(F)F)c(Cl)c2)NC(=O)CN(C)C(=O)[C@H](Cc2ccc(Cl)cc2)N2CCCC[C@@H](C2=O)N(C)C(=O)CN(C)C1=O [PP0532]
HRAS/KRAS (ratio of KD value with respect to GDP-bound HRAS wild-type protein to KD value with respect to KRAS) ([1]; SPR): B (a compound having 3 or more and less than 10 is denoted as B) | NRAS/KRAS (ratio of KD value with respect to GDP-bound NRAS wild-type protein to KD value with respect to KRAS) ([2]; SPR): C (A compound having a KD ratio of 0.1 or more and less than 3 is denoted as C)

CCC[C@H]1C(=O)N[C@@H]([C@@H](C)CC)C(=O)N2CCC[C@H]2C(=O)N(C)[C@H]2C/C=C\CCN(C2=O)[C@@H](Cc2ccc(C(F)(F)F)cc2)C(=O)N(C)CC(=O)N[C@@H](CCc2cc(F)c(C(F)(F)F)c(F)c2)C(=O)N2C[C@H](OCC)C[C@H]2C(=O)N(C)C2(CCC2)C(=O)N(C)[C@@H](C2CCCC2)C(=O)N(C)[C@H](C(=O)N2CCCCC2)CC(=O)N1C [PP3114]
HRAS/KRAS (ratio of KD value with respect to GDP-bound HRAS wild-type protein to KD value with respect to KRAS) [1, 5]: A (a compound having 10 or more and less than 20 is denoted as A) | NRAS/KRAS (ratio of KD value with respect to GDP-bound NRAS wild-type protein to KD value with respect to KRAS) [2, 5]: AA (a compound having 20 or more is denoted as AA)

CCCOC[C@H]1C(=O)N[C@@H]([C@@H](C)CC)C(=O)N(C)CC(=O)N(C)[C@H]2C/C=C\CCN(C2=O)[C@@H](Cc2ccc(C)cc2)C(=O)N(C)CC(=O)N[C@@H](CCc2ccc(Cl)c(Cl)c2)C(=O)N2C[C@H](OCC)C[C@H]2C(=O)NC2(CC(C)(C)C2)C(=O)N(C)[C@@H](CC(C)(C)C)C(=O)N(C)[C@H](C(=O)N(C)C)CC(=O)N1C [PP2716]
HRAS/KRAS (ratio of KD value with respect to GDP-bound HRAS wild-type protein to KD value with respect to KRAS) ([1]; class symbols): A (a compound having 10 or more and less than 20 is denoted as A) | NRAS/KRAS (ratio of KD value with respect to GDP-bound NRAS wild-type protein to KD value with respect to KRAS) ([2]; class symbols): A (a compound having 10 or more and less than 20 is denoted as A)

CCC[C@H]1C(=O)N[C@@H]([C@@H](C)CC)C(=O)N(C)CC(=O)N(C)CC(=O)N(CCC)[C@@H](Cc2ccc(C(F)(F)F)cc2)C(=O)N(C)CC(=O)N[C@@H](CCc2ccc(C(F)(F)F)c(Cl)c2)C(=O)N2CCC[C@H]2C(=O)NC2(CCC2)C(=O)N(C)[C@@H](C2CCCC2)C(=O)N(CCC)[C@H](C(=O)N2CCOCC2)CC(=O)N1C [PP1954] ([NMeNva]I[Sar][Sar][NPrPhe(4-CF3)][Sar][hPhe(3-Cl-4-CF3)]P[Ac4c][NMeGly(cPent)][NPrAsp]-Morpholide; lactam N-11)
HRAS/KRAS (ratio of KD value for HRAS to KD value for KRAS) [1, 3]: B (a compound having 3 or more and less than 10 is denoted as B) | NRAS/KRAS (ratio of KD value for NRAS to KD value for KRAS) [2, 4]: B (a compound having 3 or more and less than 10 is denoted as B)

CCCN1C(=O)[C@@H]2CCN2C(=O)[C@H](C)N(C)C(=O)[C@H]([C@@H](C)CC)NC(=O)[C@H](CC(C)C)N(C)C(=O)C[C@@H](C(=O)N2CCOCC2)N(C)C(=O)[C@H](C2CCCC2)N(C)C(=O)C2(CCCC2)NC(=O)CN(C)C(=O)[C@H](CCc2ccc(C(F)(F)F)c(Cl)c2)NC(=O)CN(C)C(=O)[C@@H]1Cc1ccc(C(F)(F)F)cc1 [PP0287] ([NMeL]I[NMeA][Aze][NPrPhe(4-CF3)][Sar][hPhe(3-Cl-4-CF3)][Sar][Ac5c][NMeGly(cPent)][NMeD]-Morpholide; lactam N-11)
HRAS/KRAS (ratio of KD for GDP-bound HRAS wild-type to KD for KRAS) ([1]; SPR): C (A compound having a KD ratio of 0.1 or more and less than 3 is denoted as C) | NRAS/KRAS (ratio of KD for GDP-bound NRAS wild-type to KD for KRAS) ([2]; SPR): C (A compound having a KD ratio of 0.1 or more and less than 3 is denoted as C)
